Results from patent US8343983B2, “Substituted pyrazolo-pyrimidine compounds” (ArQule, Inc., priority 2009, dated 2013).
Like-named read-outs stand apart in the source and are kept apart here.

System: cancer cells
Assay: MTS assay: inhibition of cell growth (formazan absorbance at 492 nm after 72 hours with test compound)
Assay type: cell-based
Settings: inhibition class
Description: Cells were maintained at 37° C., 5% CO2 in DMEM media supplemented with 1% fetal bovine serum, penicillin/streptomycin and fungizone (Invitrogen). Cells were seeded into 96-well tissue culture plates at 3000 per well and cultured at 37° C. for 18 hours. Test compounds were dissolved and diluted to 300× in DMSO then diluted 1:40 in DMEM. Cells were incubated with test compounds for 72 hours followed by incubation with tetrazolium compound (3-(4,5-dimethylthiazol-2-yl)-5-(3-carboxymethoxyphenyl)-2-(4-sulfophenyl)-2H-tetrazolium, inner salt; MTS) and the electron coupling reagent, phenazine methosulfate (PMS) for 4 hours. […] The ability of compounds to inhibit cell growth in this assay is correlated with the reduction of dehydrogenase enzyme activity found in metabolically active cells. The measurement of the absorbance of the formazan was assessed using an ENVISION™ (Perkin Elmer) microplate reader at 492 nm. The calculated IC50 value is the concentration of the test compound that causes a 50% decrease in the absorbance. […] A=>79% inhibition, B=>50 to 79% inhibition, C=<50% inhibition.

[1] = Homo sapiens, DLD-1 cells, read-out: DLD-1, MTS 72 hours at 10 uM
[2] = Homo sapiens, KATO III cells, read-out: KATO III, MTS 72 hours at 10 uM
[3] = Homo sapiens, MDA-MB-231 cells, read-out: MDA-MB-231, MTS 72 hours at 10 uM
[4] = Homo sapiens, NCI-H1299 cells, read-out: NCI-H1299, MTS 72 hours at 10 uM
[5] = Homo sapiens, PC-3 cells, read-out: PC-3, MTS 72 hours at 10 uM
[6] = PACA-2 cells, read-out: PACA-2, MTS 72 hours at 10 uM

Row | SMILES | inhibition at 10 µM [1] [%] | inhibition at 10 µM [2] [%] | inhibition at 10 µM [3] [%] | inhibition at 10 µM [4] [%] | inhibition at 10 µM [5] [%] | inhibition at 10 µM [6] [%]
1 | c1ccc(CN2CCN(CCNc3nc4c5c(n[nH]c5n3)CCN4Cc3ccccc3)CC2)cc1 [Compound 33, 6-benzyl-N-[2-(4-benzylpiperazin-1-yl)ethyl]-2,6,7,8-tetrahydro-1,2,3,5,6-pentaazaacenaphthylen-4-amine] | < 50 | < 50 | < 50 | < 50 | < 50 | < 50
2 | c1ccc(CN2CCc3n[nH]c4nc(NCCOc5ccccc5)nc2c34)cc1 [Compound 34, 6-benzyl-N-(2-phenoxyethyl)-2,6,7,8-tetrahydro-1,2,3,5,6-pentaazaacenaphthylen-4-amine] | < 50 | < 50 | 50 to 79 | < 50 | < 50 | 50 to 79
3 | Clc1ccccc1CCNc1nc2c3c(n[nH]c3n1)CCN2Cc1ccccc1 [Compound 35, 6-benzyl-N-[2-(2-chlorophenyl)ethyl]-2,6,7,8-tetrahydro-1,2,3,5,6-pentaazaacenaphthylen-4-amine] | < 50 | < 50 | 50 to 79 | < 50 | < 50 | < 50
4 | COc1cccc(CCNc2nc3c4c(n[nH]c4n2)CCN3Cc2ccccc2)c1 [Compound 36, 6-benzyl-N-[2-(3-methoxyphenyl)ethyl]-2,6,7,8-tetrahydro-1,2,3,5,6-pentaazaacenaphthylen-4-amine] | < 50 | < 50 | < 50 | < 50 | < 50 | < 50
5 | c1ccc(CNc2nc3c4c(n[nH]c4n2)CCN3Cc2ccccc2)cc1 [Compound 37, N,6-dibenzyl-2,6,7,8-tetrahydro-1,2,3,5,6-pentaazaacenaphthylen-4-amine] | < 50 | < 50 | < 50 | < 50 | < 50 | < 50
6 | FC(F)(F)c1cccc(N2CCN(c3nc4c5c(n[nH]c5n3)CCN4Cc3ccccc3)CC2)c1 [Compound 38, 6-benzyl-4-{4-[3-(trifluoromethyl)phenyl]piperazin-1-yl}-2,6,7,8-tetrahydro-1,2,3,5,6-pentaazaacenaphthylene] | < 50 | < 50 | < 50 | < 50 | < 50 | < 50
7 | COc1cccc(CCNc2nc3c4c(n[nH]c4n2)CCN3Cc2ccccc2)c1OC [Compound 39, 6-benzyl-N-[2-(2,3-dimethoxyphenyl)ethyl]-2,6,7,8-tetrahydro-1,2,3,5,6-pentaazaacenaphthylen-4-amine] | < 50 | < 50 | < 50 | < 50 | < 50 | < 50
8 | c1ccc(CN2CCc3n[nH]c4nc(NCc5ccc(Oc6ccccc6)cc5)nc2c34)cc1 [Compound 40] | < 50 | 50 to 79 | < 50 | 50 to 79 | < 50 | 50 to 79
9 | CN1CCCC1CCNc1nc2c3c(n[nH]c3n1)CCN2Cc1ccccc1 (stereo not drawn) [Compound 41, 6-benzyl-N-[2-(1-methylpyrrolidin-2-yl)ethyl]-2,6,7,8-tetrahydro-1,2,3,5,6-pentaazaacenaphthylen-4-amine] | < 50 | < 50 | 50 to 79 | < 50 | < 50 | < 50
10 | c1ccc(CN2CCc3n[nH]c4nc(N5CCN6CCCC6C5)nc2c34)cc1 (stereo not drawn) [Compound 42, 6-benzyl-4-(hexahydropyrrolo[1,2-a]pyrazin-2(1H)-yl)-2,6,7,8-tetrahydro-1,2,3,5,6-pentaazaacenaphthylene] | < 50 | < 50 | < 50 | < 50 | < 50 | < 50
11 | COc1ccccc1N1CCN(c2nc3c4c(n[nH]c4n2)CCN3Cc2ccccc2)CC1 [Compound 43, 6-benzyl-4-[4-(2-methoxyphenyl)piperazin-1-yl]-2,6,7,8-tetrahydro-1,2,3,5,6-pentaazaacenaphthylene] | < 50 | > 79 | > 79 | < 50 | > 79 | < 50
